Laboratory results from PubChem BioAssay (NCI).
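Assay format: 96-well plates, 48-hour exposure. GI50 marks 50% less growth. TGI: concentration producing complete growth inhibition.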

Tests used:
Assay in all cases: NCI-60 cell line screen, 48 h; in the data active = GI50 below about 0.43 µM; inactive = the rest
[1] = system: MDA-MB-231 breast
[2] = system: HOP-62 NSCLC
[3] = system: M14 melanoma
[4] = system: OVCAR-5 ovarian
[5] = system: SR leukemia
[6] = system: KM12 colon
[7] = system: UO-31 renal
[8] = system: ACHN renal
[9] = system: OVCAR-4 ovarian
[10] = system: K-562 leukemia
[11] = system: 786-0 renal
[12] = system: U251 CNS
[13] = system: MALME-3M melanoma
[14] = system: RPMI-8226 leukemia
[15] = system: SK-MEL-5 melanoma
[16] = system: OVCAR-8 ovarian
[17] = system: HCC-2998 colon
[18] = system: HCT-116 colon
[19] = system: HS 578T breast
[20] = system: HCT-15 colon
[21] = system: UACC-62 melanoma
[22] = system: SK-OV-3 ovarian
[23] = system: TK-10 renal
[24] = system: CAKI-1 renal
[25] = system: SF-539 CNS
[26] = system: NCI-H226 lung
[27] = system: SK-MEL-2 melanoma
[28] = system: SF-268 CNS
[29] = system: NCI-H23 lung
[30] = system: HL-60(TB) leukemia
[31] = system: PC-3 prostate
[32] = system: CCRF-CEM leukemia
[33] = system: MDA-MB-435
[34] = system: LOX IMVI melanoma
[35] = system: NCI-H522 lung
[36] = system: A498 renal
[37] = system: DU-145 prostate
[38] = system: IGROV1 ovarian
[39] = system: A549 NSCLC
[40] = system: SNB-19 CNS
[41] = system: NCI/ADR-RES ovarian
[42] = system: T-47D breast
[43] = system: MCF7 breast
[44] = system: UACC-257 melanoma
[45] = system: SW-620 colon
[46] = system: SN12C renal
[47] = system: COLO 205 colon
[48] = system: NCI-H460 lung
[49] = system: RXF 393 renal
[50] = system: BT-549 breast
[51] = system: OVCAR-3 ovarian
[52] = system: HT29 colon
[53] = system: MOLT-4 leukemia
[54] = system: SK-MEL-28 melanoma

COc1ccc(-c2nc(-c3nc4ccc(F)cc4[nH]3)cc3c2[nH]c2ccccc23)cc1
3.92 µM: TGI [14]
7.26 µM: TGI [12]
9.7 µM: TGI [36] | TGI [38]
25.6 µM: TGI [32]
6.14 µM: TGI [53]
4.55 µM: TGI [49]
9.65 µM: TGI [37]
5.97 µM: TGI [35]
4.8 µM: TGI [44]
12.2 µM: TGI [6]
4.61 µM: TGI [15]
5.01 µM: TGI [51]
6.74 µM: TGI [23]
5.31 µM: TGI [34]
inactive: GI50 [1] 2.3 µM | GI50 [2] 3.22 µM | GI50 [3] 2.54 µM | GI50 [4] 4.46 µM | GI50 [5] 3.34 µM | GI50 [6] 2.78 µM | GI50 [7] 2.54 µM | GI50 [8] 2.87 µM | GI50 [9] 5.1 µM | GI50 [10] 2.79 µM | GI50 [11] 3.33 µM | GI50 [12] 2.42 µM | GI50 [13] 2.33 µM | GI50 [14] 1.16 µM | GI50 [15] 1.8 µM | GI50 [16] 1.78 µM | GI50 [17] 3.71 µM | GI50 [18] 2.69 µM | GI50 [19] 2.82 µM | GI50 [20] 2.82 µM | GI50 [21] 1.86 µM | GI50 [22] 4 µM | GI50 [23] 2.2 µM | GI50 [24] 3.87 µM | GI50 [25] 2.8 µM | GI50 [26] 3.12 µM | GI50 [27] 2.11 µM | GI50 [28] 3.24 µM | GI50 [29] 3.01 µM | GI50 [30] 2.83 µM | GI50 [31] 1.69 µM | GI50 [32] 2.29 µM | GI50 [33] 2.58 µM | GI50 [34] 2.22 µM | GI50 [35] 2 µM | GI50 [36] 1.92 µM | GI50 [37] 2.99 µM | GI50 [38] 2.49 µM | GI50 [39] 2.21 µM | GI50 [40] 2.94 µM | GI50 [41] 2.77 µM | GI50 [42] 2.56 µM | GI50 [43] 2.53 µM | GI50 [44] 2.01 µM | GI50 [45] 3.73 µM | GI50 [46] 2.97 µM | GI50 [47] 2.1 µM | GI50 [48] 1.98 µM | GI50 [49] 1.72 µM | GI50 [50] 3.18 µM | GI50 [51] 2.23 µM | GI50 [52] 2.96 µM | GI50 [53] 1.56 µM | GI50 [54] 3.4 µM
4.71 µM: TGI [47]
9.01 µM: TGI [52]
7.12 µM: TGI [3]
5.71 µM: TGI [31]
8.99 µM: TGI [13]
8.95 µM: TGI [1]
26.2 µM: TGI [17]
74.7 µM: TGI [2]
8.25 µM: TGI [18]
4.25 µM: TGI [21]
13.4 µM: TGI [33]
7.23 µM: TGI [30]
10.9 µM: TGI [29]
6.69 µM: TGI [16]
5.81 µM: TGI [48]
7.5 µM: TGI [39]
> 100 µM: TGI [4] | TGI [5] | TGI [8] | TGI [9] | TGI [10] | TGI [11] | TGI [19] | TGI [20] | TGI [22] | TGI [24] | TGI [26] | TGI [28] | TGI [40] | TGI [41] | TGI [42] | TGI [43] | TGI [45] | TGI [46] | TGI [54]
8.74 µM: TGI [7]
4.45 µM: TGI [27]
9.33 µM: TGI [25]
9.72 µM: TGI [50]
